Experimental findings from PubChem BioAssay (NCI) are described below.

SMILES strings stand for the structures.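 Values below derive from 48-hour exposures of cells grown in 96-well plates, with endpoints linearly interpolated between the two concentrations bracketing the appropriate inhibition level. GI50: concentration for 50% inhibition of growth. TGI: concentration producing complete growth inhibition.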

Among the test systems are SNB-19 CNS; MALME-3M melanoma; RPMI-8226 leukemia; A498 renal; NCI-H522 lung; NCI-H23 lung; HCT-15 colon; TK-10 renal; A549 NSCLC; MDA-MB-435.
Common to all, as to experiment: inhibition of tumour cell growth, NCI panel, 48 h

Turning to `Cc1nnn(C)c1-c1cnc2c3ccc(C(C)(C)O)cc3n([C@H](c3ccccc3)C3CCOCC3)c2c1`, the GI50 in the test with SNB-19 CNS is 0.0395 µM; in the test on MALME-3M melanoma it was 0.052 µM; in the test with RPMI-8226 leukemia, under 0.01 µM; in the test with A498 renal, under 0.0381 µM; in the test on NCI-H522 lung, under 0.01 µM; in the test on NCI-H23 lung it was 0.158 µM. Besides, the GI50 with HCT-15 colon is under 0.0106 µM; in the test on TK-10 renal it was under 0.01 µM; in the test with A549 NSCLC, 0.037 µM; with MDA-MB-435, under 0.01 µM. Further, the TGI with SNB-19 CNS was over 100 µM; in the test with MALME-3M melanoma it was 41.3 µM; with RPMI-8226 leukemia, 27.9 µM; with A498 renal, 0.581 µM; in the test on NCI-H522 lung it was 20.9 µM; in the test with NCI-H23 lung it was 34.1 µM. In addition, the TGI with HCT-15 colon is 14.6 µM; in the test with TK-10 renal, 11 µM; in the test on A549 NSCLC, 31.9 µM; with MDA-MB-435, over 100 µM.

Take `Cc1ccc(/C(=N/NS(=O)(=O)c2cc(C)c(Cl)cc2Cl)Sc2cc(Cl)c(C)cc2S(N)(=O)=O)cc1`: the GI50 was over 100 µM with SNB-19 CNS; 63.6 µM with MALME-3M melanoma; 51.3 µM in the test on RPMI-8226 leukemia; over 100 µM in the test with A498 renal; over 100 µM in the test on NCI-H522 lung; over 100 µM in the test with NCI-H23 lung. Also, the GI50 in the test on HCT-15 colon, in the test on TK-10 renal, with A549 NSCLC and in the test on MDA-MB-435 was over 100 µM each time. In addition, the TGI with SNB-19 CNS, in the test with MALME-3M melanoma, in the test on RPMI-8226 leukemia, with A498 renal, in the test on NCI-H522 lung and with NCI-H23 lung was over 100 µM each time. The TGI in the test on HCT-15 colon, in the test on TK-10 renal, in the test on A549 NSCLC and in the test on MDA-MB-435 was over 100 µM each time.

Regarding `CC(C)C1=Cc2ccc3c(c2C(=O)C1=O)CCCC3`, the TGI in the test with SNB-19 CNS stood at 37.5 µM; in the test on MALME-3M melanoma, 5.78 µM; in the test on RPMI-8226 leukemia it was 6.6 µM; with A498 renal it was 18.5 µM; in the test on NCI-H522 lung, 18.1 µM; with NCI-H23 lung, 20.3 µM. Further, the TGI with HCT-15 colon stood at 9.03 µM; in the test on TK-10 renal, 6.55 µM; in the test on A549 NSCLC it was 34.4 µM; in the test with MDA-MB-435, 21.4 µM.

`Clc1ccc(-c2cnc3c(-c4ccnc(N5CCNCC5)c4)cnn3c2)cc1`: the GI50 is 2.02 µM in the test on SNB-19 CNS; 1.86 µM with MALME-3M melanoma; 1.86 µM in the test on RPMI-8226 leukemia; 1.65 µM in the test with A498 renal; 2.37 µM with NCI-H522 lung; 1.99 µM with NCI-H23 lung. The GI50 in the test with HCT-15 colon is 2.7 µM; with TK-10 renal, 1.99 µM; with A549 NSCLC, 1.96 µM; in the test with MDA-MB-435 it was 1.89 µM. In addition, the TGI was 4.03 µM in the test on SNB-19 CNS; 3.31 µM in the test on MALME-3M melanoma; 4.05 µM in the test on RPMI-8226 leukemia; 3.06 µM in the test on A498 renal; 5.89 µM in the test on NCI-H522 lung; 3.66 µM in the test with NCI-H23 lung. The TGI in the test with HCT-15 colon came out at 5.18 µM; in the test with TK-10 renal, 3.43 µM; with A549 NSCLC it was 3.69 µM; in the test on MDA-MB-435 it was 3.72 µM.

On to `Oc1nc(N2CCOCC2)sc1/C=C1\C=Nc2ccccc21`, for which the GI50 in the test with SNB-19 CNS, in the test on MALME-3M melanoma, with RPMI-8226 leukemia, with A498 renal, in the test on NCI-H522 lung and in the test on NCI-H23 lung was over 100 µM throughout. In addition, the GI50 in the test on HCT-15 colon, with TK-10 renal, with A549 NSCLC and with MDA-MB-435 was over 100 µM in each case. Besides, the TGI in the test on SNB-19 CNS, in the test on MALME-3M melanoma, in the test with RPMI-8226 leukemia, in the test with A498 renal, with NCI-H522 lung and with NCI-H23 lung was over 100 µM in each case. The TGI in the test on HCT-15 colon, with TK-10 renal, in the test with A549 NSCLC and in the test with MDA-MB-435 was over 100 µM in each case.

For the compound `CN1CCc2ccccc2C1Cc1ccccc1NC(=O)c1sc2ccccc2c1Cl` (stereo not given), the TGI in the test on SNB-19 CNS, in the test with MALME-3M melanoma, in the test with RPMI-8226 leukemia, with A498 renal, in the test on NCI-H522 lung and with NCI-H23 lung was over 100 µM in each case. Further, the TGI in the test on HCT-15 colon, with TK-10 renal, with A549 NSCLC and in the test with MDA-MB-435 was over 100 µM each time.

With `OCc1ccc(-c2nc(-c3ccc4c(c3)OCO4)c(-c3ccccn3)[nH]2)cc1`, the GI50 in the test on SNB-19 CNS is over 25 µM; with MALME-3M melanoma, over 25 µM; with RPMI-8226 leukemia, 15.9 µM; in the test on A498 renal, over 25 µM; in the test with NCI-H522 lung, over 25 µM; in the test with NCI-H23 lung it was over 25 µM. Besides, the GI50 in the test on HCT-15 colon is 15.1 µM; in the test with TK-10 renal, over 25 µM; in the test on A549 NSCLC, over 25 µM; in the test with MDA-MB-435 it was over 25 µM. The TGI in the test with SNB-19 CNS, with MALME-3M melanoma, in the test with RPMI-8226 leukemia, with A498 renal, in the test on NCI-H522 lung and with NCI-H23 lung was over 25 µM each time. In addition, the TGI in the test on HCT-15 colon, with TK-10 renal, in the test with A549 NSCLC and in the test with MDA-MB-435 was over 25 µM in each case.
